Several values for one entry are separate records, joined by “and”; a condition that tells them apart may be missing. Equal entries are not always repeated. Inconclusive results and toxic doses are left out. The calls were made as follows: active = survival T/C of 150% or more; inactive = T/C below 125% in these data.
Test system: P388 leukemia ip, CD2F1 mice, survival T/C
Test: NCI In Vivo Anticancer Drug Screen. Data for tumor model P388 Leukemia (intraperitoneal) in CD2F1 (CDF1) mice
Conditions: endpoint: median survival time, higher = longer survival
Method in brief: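 Mice carrying the transplanted tumor received test compound or vehicle. Survival was recorded in each group, and the value is the treated-group measurement divided by that of the vehicle-treated control group.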

[1] = dose: 50.0 mg/kg/injection, schedule: Q01DX005 (ip), vehicle: Klucel (hydroxypropylcellulose) (HPC)
[2] = dose: 50.0 mg/kg/injection, schedule: Q01DX005 (ip), vehicle: saline with Tween-80
[3] = dose: 100.0 mg/kg/injection, schedule: Q01DX005 (ip), vehicle: saline with Tween-80
[4] = dose: 200.0 mg/kg/injection, schedule: Q01DX005 (ip), vehicle: saline with Tween-80
[5] = dose: 60.0 mg/kg/injection, schedule: Q01DX005 (ip), vehicle: saline with Tween-80
[6] = dose: 60.0 mg/kg/injection, schedule: Q01DX005 (ip), vehicle: Klucel (hydroxypropylcellulose) (HPC)
[7] = dose: 120.0 mg/kg/injection, schedule: Q01DX005 (ip), vehicle: Klucel (hydroxypropylcellulose) (HPC)
[8] = dose: 240.0 mg/kg/injection, schedule: Q01DX005 (ip), vehicle: Klucel (hydroxypropylcellulose) (HPC)

Measured: T/C

COC1OC(CO)C(O)C(O)C1N1C(=O)c2ccccc2C1=O (stereo not given)
inactive: [1] 100 % of control | dose: 50.0 mg/kg/injection, schedule: Q01DX005 (ip), vehicle: saline 97 % of control | dose: 100.0 mg/kg/injection, schedule: Q01DX005 (ip), vehicle: Klucel (hydroxypropylcellulose) (HPC) 98 % of control | dose: 100.0 mg/kg/injection, schedule: Q01DX005 (ip), vehicle: saline 97 % of control | dose: 200.0 mg/kg/injection, schedule: Q01DX005 (ip), vehicle: Klucel (hydroxypropylcellulose) (HPC) 97 % of control | dose: 200.0 mg/kg/injection, schedule: Q01DX005 (ip), vehicle: saline 101 % of control

S=C1NCCNC(=S)SSSS1
inactive: [2] 107 % of control | [3] 114 % of control | [4] 113 % of control

C#CCOc1ccc(C(F)(F)F)cc1
inactive: dose: 25.0 mg/kg/injection, schedule: Q01DX009 (ip), vehicle: saline with Tween-80 105 % of control | dose: 50.0 mg/kg/injection, schedule: Q01DX009 (ip), vehicle: saline with Tween-80 118 % of control | dose: 100.0 mg/kg/injection, schedule: Q01DX009 (ip), vehicle: saline with Tween-80 119 % of control

Nc1c(C(=O)NCCc2ccccc2)c2nc3c(C(=O)NCCc4ccccc4)ccc(Br)c3oc-2c(Br)c1=O
inactive: [2] 89 % of control | [3] 94 % of control | [4] 99 % of control

O=C(Cc1nc2ccc(Cl)cc2nc1CC(=O)c1ccccc1)c1ccccc1
inactive: dose: 15.0 mg/kg/injection, schedule: Q01DX005 (ip), vehicle: saline with Tween-80 102 % of control | dose: 30.0 mg/kg/injection, schedule: Q01DX005 (ip), vehicle: saline with Tween-80 111 % of control | [5] 100 % of control and 107 % of control

NC(=O)c1cnc2nc1NCCCCCCC2
inactive: dose: 100.0 mg/kg/injection, schedule: Q04DX002 (ip), vehicle: Klucel (hydroxypropylcellulose) (HPC) 100 % of control | dose: 200.0 mg/kg/injection, schedule: Q04DX002 (ip), vehicle: Klucel (hydroxypropylcellulose) (HPC) 98 % of control | dose: 400.0 mg/kg/injection, schedule: Q04DX002 (ip), vehicle: Klucel (hydroxypropylcellulose) (HPC) 90 % of control

Nc1nc2ccccc2n1/N=C/c1ccccc1[N+](=O)[O-]
inactive: dose: 100.0 mg/kg/injection, schedule: Q01DX001 (ip), vehicle: Klucel (hydroxypropylcellulose) (HPC) 90 % of control | dose: 200.0 mg/kg/injection, schedule: Q01DX001 (ip), vehicle: Klucel (hydroxypropylcellulose) (HPC) 100 % of control | dose: 400.0 mg/kg/injection, schedule: Q01DX001 (ip), vehicle: Klucel (hydroxypropylcellulose) (HPC) 98 % of control

CCCCc1c(C)[nH]n(C(N)=NCCSCc2nc[nH]c2C)c1=O
inactive: [6] 100 % of control | [7] 99 % of control | [8] 100 % of control

COc1ccc2c(c1OC)C[C@@H]1c3c(cc4c(c3-2)OCO4)CCN1C
inactive: dose: 6.25 mg/kg/injection, schedule: Q01DX005 (ip), vehicle: Klucel (hydroxypropylcellulose) (HPC) 117 % of control | dose: 12.5 mg/kg/injection, schedule: Q01DX005 (ip), vehicle: Klucel (hydroxypropylcellulose) (HPC) 105 % of control | dose: 25.0 mg/kg/injection, schedule: Q01DX005 (ip), vehicle: Klucel (hydroxypropylcellulose) (HPC) 96 % of control | [1] 92 % of control

COC(=O)C12CC=CCC1(C(=O)OC)CC=CC2 (stereo not given)
inactive: dose: 50.0 mg/kg/injection, schedule: Q01DX009 (ip), vehicle: Klucel (hydroxypropylcellulose) (HPC) 101 % of control | dose: 100.0 mg/kg/injection, schedule: Q01DX009 (ip), vehicle: Klucel (hydroxypropylcellulose) (HPC) 100 % of control | dose: 200.0 mg/kg/injection, schedule: Q01DX009 (ip), vehicle: Klucel (hydroxypropylcellulose) (HPC) 102 % of control

Clc1ccc2c(c1)[N+](=c1ccc3nc4cc(Cl)ccc4sc-3c1)c1ccccc1S2.[Cl][Cu][Cl]
inactive: [6] 95 % of control | [7] 91 % of control | [8] 88 % of control

O=C1CCC(c2n[nH]c(=S)o2)N1 (stereo not given)
inactive: [5] 104 % of control | dose: 120.0 mg/kg/injection, schedule: Q01DX005 (ip), vehicle: saline with Tween-80 105 % of control | dose: 240.0 mg/kg/injection, schedule: Q01DX005 (ip), vehicle: saline with Tween-80 108 % of control
